Laboratory results reported in article PMC12626222, “Benzoic and salicylic acids inhibit β-substituted alanine synthase 4;1 in common bean” (Plant Physiology, 2025).
pIC50: −log10 of the molar value. One block for each molecule: values may come before it.

Assays:
[1] = target: T1, PvBSAS4;1 (beta-substituted alanine synthase 4;1, cytosolic cysteine synthase) (Phaseolus vulgaris, UniProt V7BIJ9); test: acid-ninhydrin colorimetric assay of cysteine formation, […] nm; format: biochemical
T1 construct: gene PHAVU_007G185200g
T1 sequence (V7BIJ9 entry or part of it): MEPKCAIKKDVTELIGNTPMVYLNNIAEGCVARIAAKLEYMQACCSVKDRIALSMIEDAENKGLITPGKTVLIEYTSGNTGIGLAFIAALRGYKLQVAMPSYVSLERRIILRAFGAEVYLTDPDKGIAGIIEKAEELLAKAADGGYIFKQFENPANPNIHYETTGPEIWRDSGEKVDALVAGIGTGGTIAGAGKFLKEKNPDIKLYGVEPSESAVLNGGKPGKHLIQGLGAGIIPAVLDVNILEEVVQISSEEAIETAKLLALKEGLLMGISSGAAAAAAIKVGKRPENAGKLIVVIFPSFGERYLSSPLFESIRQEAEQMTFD

[2] = target: T1, PvBSAS4;1 (beta-substituted alanine synthase 4;1, cytosolic cysteine synthase); test: X-ray crystal structure, […] Å; format: binding
[3] = target: T1, PvBSAS4;1 (beta-substituted alanine synthase 4;1, cytosolic cysteine synthase); test: acid-ninhydrin colorimetric assay, Lineweaver-Burk plot; format: biochemical; conditions: 2 to 8 mM O-acetylserine, 1.5 mM sodium sulfide, 100 mM MOPSO pH 7.0, 25 °C; apparent values plotted against benzoic acid concentration

pIC50 [1]: ~3.22
Compound: O=C(O)c1ccccc1 [BEZ, benzoic acid]
X-ray crystal structure, 1.60 Å ([2]; co-purified from E. coli, active site, near PLP (internal aldimine), carboxylate bound by Thr76, Ser77, Asn79, Thr80, Gln150): contains the PLP prosthetic group and a molecule of benzoic acid (Fig. 3A)

Compound: CC(=O)OC[C@H](N)C(=O)O [OAS, O-acetylserine]
Ks app [3]: the replot of Ks app versus the concentration of inhibitor

Compound: Cc1ncc(COP(=O)(O)O)c(C=O)c1O [PLP, pyridoxal 5′-phosphate]
X-ray crystal structure, 1.60 Å ([2]; covalent internal aldimine with Lys48, co-purified): PLP is stabilized by a covalent bond to Lys48, creating an internal aldimine

pIC50 [1]: 3.22
Compound: O=C(O)c1ccccc1O [salicylic acid]
